The source of these data is patent US10150759B2, “1,4-pyridone bicycic heteroaryl compounds” (Epizyme, Inc., priority 2012, dated 2018).

The target of assay [1] is wild-type EZH2 (PRC2 enzyme) (Homo sapiens (Human), UniProt Q15910). Briefly: PRC2 enzyme assay on peptide substrate (wild-type EZH2). In kind it is biochemical. Conditions: wild-type PRC2 4 nM, H3K27me0 peptide substrate, 3H-SAM; read-out: WT EZH2 IC50. An excerpt: S-adenosylmethionine (SAM), S-adenosylhomocyteine (SAH), bicine, KCl, Tween20, dimethylsulfoxide (DMSO) and bovine skin gelatin (BSG) were purchased from Sigma-Aldrich at the highest level of purity possible. Dithiothreitol (DTT) was purchased from EMD. ^3H-SAM was purchased from American Radiolabeled Chemicals with a specific activity of 80 Ci/mmol. 384-well streptavidin Flashplates were purchased from PerkinElmer.
wild-type EZH2 (PRC2 enzyme), sequence (Q15910 other isoform, or with tags, fused parts or gaps): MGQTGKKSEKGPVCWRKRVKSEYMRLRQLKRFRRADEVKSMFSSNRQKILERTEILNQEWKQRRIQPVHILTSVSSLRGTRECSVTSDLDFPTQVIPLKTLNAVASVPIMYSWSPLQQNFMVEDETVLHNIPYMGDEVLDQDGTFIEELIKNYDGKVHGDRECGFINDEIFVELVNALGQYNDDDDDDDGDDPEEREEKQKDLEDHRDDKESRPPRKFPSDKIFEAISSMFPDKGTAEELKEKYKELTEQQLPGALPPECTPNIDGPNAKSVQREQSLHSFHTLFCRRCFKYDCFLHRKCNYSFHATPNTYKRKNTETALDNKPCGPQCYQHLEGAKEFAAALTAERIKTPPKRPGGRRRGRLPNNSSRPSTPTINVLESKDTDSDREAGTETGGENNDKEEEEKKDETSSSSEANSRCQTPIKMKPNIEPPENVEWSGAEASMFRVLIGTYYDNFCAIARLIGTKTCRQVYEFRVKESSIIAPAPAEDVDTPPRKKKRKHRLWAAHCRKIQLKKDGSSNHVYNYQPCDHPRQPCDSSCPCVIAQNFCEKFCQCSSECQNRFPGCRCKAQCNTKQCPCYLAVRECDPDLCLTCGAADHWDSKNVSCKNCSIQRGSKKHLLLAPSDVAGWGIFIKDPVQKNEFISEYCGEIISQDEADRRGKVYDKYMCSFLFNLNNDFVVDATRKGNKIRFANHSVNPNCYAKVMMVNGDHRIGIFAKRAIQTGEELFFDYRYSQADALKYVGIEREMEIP
wild-type EZH2 (PRC2 enzyme), sequence (O75530 whole entry partner, the tested form may be a part): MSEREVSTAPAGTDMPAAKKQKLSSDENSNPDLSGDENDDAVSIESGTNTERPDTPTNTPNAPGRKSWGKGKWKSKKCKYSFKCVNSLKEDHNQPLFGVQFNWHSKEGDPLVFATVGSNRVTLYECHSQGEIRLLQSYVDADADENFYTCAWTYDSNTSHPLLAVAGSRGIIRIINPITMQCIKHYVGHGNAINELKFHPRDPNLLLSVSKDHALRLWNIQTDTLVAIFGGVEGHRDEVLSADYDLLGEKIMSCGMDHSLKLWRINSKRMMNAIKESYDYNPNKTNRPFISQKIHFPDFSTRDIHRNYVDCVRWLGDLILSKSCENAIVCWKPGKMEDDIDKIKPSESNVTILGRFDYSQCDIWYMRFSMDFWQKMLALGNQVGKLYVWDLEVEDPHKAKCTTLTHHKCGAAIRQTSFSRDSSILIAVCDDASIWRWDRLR
wild-type EZH2 (PRC2 enzyme), sequence (Q15022 whole entry partner, the tested form may be a part): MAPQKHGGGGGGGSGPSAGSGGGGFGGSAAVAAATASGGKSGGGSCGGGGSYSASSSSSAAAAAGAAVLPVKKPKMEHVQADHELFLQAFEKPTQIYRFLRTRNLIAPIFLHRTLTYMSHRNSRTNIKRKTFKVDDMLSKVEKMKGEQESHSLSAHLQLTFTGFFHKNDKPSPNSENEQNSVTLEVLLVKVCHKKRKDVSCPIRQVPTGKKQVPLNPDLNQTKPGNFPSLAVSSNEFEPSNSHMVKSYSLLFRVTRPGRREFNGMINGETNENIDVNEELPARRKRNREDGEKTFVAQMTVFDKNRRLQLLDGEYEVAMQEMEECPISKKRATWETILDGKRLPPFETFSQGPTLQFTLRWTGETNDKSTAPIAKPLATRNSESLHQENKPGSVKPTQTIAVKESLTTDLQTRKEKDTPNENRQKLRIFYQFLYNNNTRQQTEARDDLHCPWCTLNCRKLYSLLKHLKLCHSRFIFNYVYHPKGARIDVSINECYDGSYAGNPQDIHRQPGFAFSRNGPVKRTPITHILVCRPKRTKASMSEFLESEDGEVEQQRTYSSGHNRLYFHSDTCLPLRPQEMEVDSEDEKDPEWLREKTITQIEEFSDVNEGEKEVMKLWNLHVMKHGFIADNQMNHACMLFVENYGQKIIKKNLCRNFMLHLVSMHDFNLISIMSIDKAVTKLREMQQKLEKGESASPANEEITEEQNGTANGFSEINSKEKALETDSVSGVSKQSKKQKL
wild-type EZH2 (PRC2 enzyme), sequence (Q09028 whole entry partner, the tested form may be a part): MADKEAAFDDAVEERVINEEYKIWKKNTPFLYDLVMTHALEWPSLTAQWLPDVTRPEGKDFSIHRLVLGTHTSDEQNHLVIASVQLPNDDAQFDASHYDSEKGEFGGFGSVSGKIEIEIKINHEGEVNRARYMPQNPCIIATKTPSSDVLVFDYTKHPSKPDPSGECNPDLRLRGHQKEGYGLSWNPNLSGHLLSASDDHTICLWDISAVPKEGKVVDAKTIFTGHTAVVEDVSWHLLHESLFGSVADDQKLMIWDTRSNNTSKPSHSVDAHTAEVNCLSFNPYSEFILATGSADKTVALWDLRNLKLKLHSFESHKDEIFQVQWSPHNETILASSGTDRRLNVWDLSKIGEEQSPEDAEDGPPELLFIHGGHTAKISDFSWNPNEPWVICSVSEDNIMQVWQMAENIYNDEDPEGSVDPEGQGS
Peptides representative of human histone H3 residues 21-44 containing either an unmodified lysine 27 (H3K27me0) or dimethylated lysine 27 (H3K27me2) were synthesized with a C-terminal G(K-biotin) linker-affinity tag motif and a C-terminal amide cap by 21st Century Biochemicals. The peptides were high-performance liquid chromatography (HPLC) purified to greater than 95% purity and confirmed by liquid chromatography mass spectrometry (LC-MS). The sequences are listed below.
Human PRC2 enzymes were purified as 4-component enzyme complexes co-expressed in Spodoptera frugiperda (sf9) cells using a baculovirus expression system. The subunits expressed were wild-type EZH2 (NM_004456) or EZH2 Y641F, N, H, S or C mutants generated from the wild-type EZH2 construct, EED (NM_003797), Suz12 (NM_015355) and RbAp48 (NM_005610). The EED subunit contained an N-terminal FLAG tag that was used to purify the entire 4-component complex from sf9 cell lysates. The purity of the complexes met or exceeded 95% as determined by SDS-PAGE and Agilent Bioanalyzer analysis. Concentrations of enzyme stock concentrations (generally 0.3-1.0 mg/mL) was determined using a Bradford assay against a bovine serum albumin (BSA) standard.
The assays were all performed in a buffer consisting of 20 mM bicine (pH=7.6), 0.5 mM DTT, 0.005% BSG and 0.002% Tween20, prepared on the day of use. […] The plates were then read in a PerkinElmer TopCount platereader to measure the quantity of ^3H-labeled peptide bound to the Flashplate surface, measured as disintegrations per minute (dpm) or alternatively, referred to as counts per minute (cpm). […]

Assay [2] concerns H3K27me3 in WSU-DLCL2 cells. Put plainly: WSU-DLCL2 methylation assay (H3K27me3 ELISA). In kind it is cell-based. Conditions: Homo sapiens, WSUDLCL2, 96 hours incubation, H3K27me3 normalized to total H3. An excerpt:
WSU-DLCL2 suspension cells were purchased from DSMZ (German Collection of Microorganisms and Cell Cultures, Braunschweig, Germany). RPMI/Glutamax Medium, Penicillin-Streptomycin, Heat Inactivated Fetal Bovine Serum, and D-PBS were purchased from Life Technologies, Grand Island, N.Y., USA. Extraction Buffer and Neutralization Buffer (5×) were purchased from Active Motif, Carlsbad, Calif., USA. Rabbit anti-Histone H3 antibody was purchased from Abcam, Cambridge, Mass., USA. Rabbit anti-H3K27me3 and HRP-conjugated anti-rabbit-IgG were purchased from Cell Signaling Technology, Danvers, Mass., USA. TMB “Super Sensitive” substrate was sourced from BioFX Laboratories, Owings Mills, Md., USA. IgG-free Bovine Serum Albumin was purchased from Jackson ImmunoResearch, West Grove, Pa., USA. PBS with Tween (10×PBST) was purchased from KPL, Gaithersburg, Md., USA. Sulfuric Acid was purchased from Ricca Chemical, Arlington, Tex., USA. Immulon ELISA plates were purchased from Thermo, Rochester, N.Y., USA. V-bottom cell culture plates were purchased from Corning Inc., Corning, N.Y., USA. V-bottom polypropylene plates were purchased from Greiner Bio-One, Monroe, N.C., USA.
WSU-DLCL2 suspension cells were maintained in growth medium (RPMI 1640 supplemented with 10% v/v heat inactivated fetal bovine serum and 100 units/mL penicillin-streptomycin) and cultured at 37° C. under 5% CO2. […]
Background: An ELISA detects its analyte on a solid surface through an enzyme-linked reagent.

Consider `CCC(C)n1cc(C)c2c(C(=O)NCc3c(C)[nH]c(C)cc3=O)cc(-c3ccc(N4CCNCC4)nc3)cc21` (stereo not shown) [Compound 4, 1-(sec-butyl)-N-((2,6-dimethyl-4-oxo-1,4-dihydropyridin-3-yl)methyl)-3-methyl-6-(6-(piperazin-1-yl)pyridin-3-yl)-1H-indole-4-carboxamide], for which the figures for the IC50 in assay [1] and in assay [2] were 0.028 µM and 11.9 µM, respectively. On to `Cc1cc(=O)c(CNC(=O)c2cc(C3=CC(C)(C)NC(C)(C)C3)nc3c2cnn3C(C)C)c(C)[nH]1` [Compound 1, N-((2,6-dimethyl-4-oxo-1,4-dihydropyridin-3-yl)methyl)-1-isopropyl-6-(2,2,6,6-tetramethyl-1,2,3,6-tetrahydropyridin-4-yl)-1H-pyrazolo[3,4-b]pyridine-4-carboxamide], for which, in assay [1], the IC50 was 6.6 µM.

With `Cc1cc(=O)c(CNC(=O)c2cc(C3CC(C)(C)NC(C)(C)C3)nc3c2cnn3C(C)C)c(C)[nH]1` [Compound 2, N-((2,6-dimethyl-4-oxo-1,4-dihydropyridin-3-yl)methyl)-1-isopropyl-6-(2,2,6,6-tetramethylpiperidin-4-yl)-1H-pyrazolo [3,4-b]pyridine-4-carboxamide], the half-inhibitory concentration (IC50) in assay [1] was 7.1 µM.

In general, IC50 refers to the concentration at which inhibition is half-maximal.
